{"source": "patent US11324774B2", "about": "“Compositions of oral alkaline salts and metabolic acid inducers and uses thereof” (Augusta University Research Institute, Inc., priority 2018, dated 2022)", "tested_on": "T-regulatory cells (FOXP3+ T-regs), TH17 cells", "test": "Circulating T-regulatory and TH17 cells in rats", "type": "in vivo", "details": "rats, 4 days in drinking water"}
{"smiles": "O=C([O-])CC(O)(CC(=O)[O-])C(=O)[O-].[Na+].[Na+].[Na+]", "note": "[Na Citrate]", "values": [{"measurement": "circulating anti-inflammatory T cells (FOXP3+ T-regs)", "value": "no effect"}]}
